Assay [1] addresses T1, recombinant IAV polymerase complex (PA/PB1/PB2) (Influenza A virus, UniProt F6KI70). The assay is classed as biochemical, H3N2 IAV strain (A/chicken/Nanchang/3-120/01). The conditions noted are these: for Primer extension products opposite C on template: template t14-1, 100 µM nucleotide plus 25 µM CTP and UTP; for Kapp, single NMP incorporation opposite cytidine (N:C): template t14-1, position +10; for Discrimination (Kapp,NTP/Kapp,GTP), opposite cytidine: template t14-1, relative to natural GTP; for Primer extension products opposite U on template: template t14-2, 100 µM nucleotide; for Discrimination (Kapp,NTP/Kapp,ATP), opposite uridine: template t14-2, relative to natural ATP; for Primer extension products with multiple incorporation sites (UCC at +10 to +12): template t14-3, 100 µM nucleotide.

In assay [2] the test system is influenza virus RNP complex (RdRp activity). It is filed as biochemical, Influenza virus (A/WSN/33 (H1N1)).
The target of assay [3] is T1, recombinant IAV polymerase complex (PA/PB1/PB2). The assay is classed as biochemical, H3N2 IAV strain (A/chicken/Nanchang/3-120/01). The conditions noted are these: T-705 RTP at 100 µM; for Effect of increasing natural GTP to 300 µM on inhibition of polymerase activity: GTP 300 µM vs low, 3′dGTP data not shown.

We go through five molecules from article PMC3707847 (PLoS ONE, 2013).

Turning to `Nc1ncnc2c1ncn2[C@@H]1O[C@H](COP(=O)(O)OP(=O)(O)OP(=O)(O)O)C[C@H]1O` [3′dATP], the “Incorporation by IAVpol in single nucleotide incorporation assay” value in assay [1] (data not shown) is listed as “not significantly incorporated by IAVpol”.
Take `Nc1nc2c(ncn2[C@@H]2O[C@H](COP(=O)(O)OP(=O)(O)OP(=O)(O)O)C[C@H]2O)c(=O)[nH]1` [3′dGTP, 3′-deoxy GTP]: in assay [2], the “Inhibition of radiolabeled viral RNA synthesis by RNP complex” value is recorded as “progressive inhibition of radio-labeled RNA synthesis”. The “Effect of increasing natural GTP to 300 µM on inhibition of polymerase activity” value in assay [3] is “almost completely prevented the inhibition of polymerase activity”. Moreover, in assay [1], the “Primer extension products opposite C on template” value is recorded as “produced only a 10-mer chain termination product”.
As to `Nc1ncnc2c1ncn2[C@@H]1O[C@H](COP(=O)(O)OP(=O)(O)OP(=O)(O)O)[C@@H](O)[C@H]1O` [ATP], in assay [1] (ATP opposite cytidine, calculated from Kapp), the “Error rate of RNA synthesis by IAV polymerase, A:C mismatch” value is given as 3.1×10^−6. In assay [1], the “Primer extension products opposite C on template” value is “mis-incorporation was slightly increased”; the “Kapp, single NMP incorporation opposite cytidine (N:C)” value is given as 2,560±720 µM; the “Discrimination (Kapp,NTP/Kapp,GTP), opposite cytidine” value was 330,000 fold; the “Primer extension products opposite U on template” value was “converted to 14-mer full length product”. Further, in assay [1], the “Discrimination (Kapp,NTP/Kapp,ATP), opposite uridine” value is 1 fold and the “Primer extension products with multiple incorporation sites (UCC at +10 to +12)” value is listed as “most of the 9-mer was converted to 10-mer”. In addition, in assay [1] (template t14-2, position +10), the “Kapp for ATP opposite uridine as printed in text” value was 0.022 ± 0.003 µM⁻¹ and the “Kapp, single NMP incorporation opposite uridine (N:U)” value was 0.022 ± 0.003 µM. In assay [1] (template t14-3, 9-mer to +10 position), the “Kapp for ATP incorporation, t14-3 template” value was 0.038 µM.
As to `Nc1nc2c(ncn2[C@@H]2O[C@H](COP(=O)(O)OP(=O)(O)OP(=O)(O)O)[C@@H](O)[C@H]2O)c(=O)[nH]1` [GTP], the “Error rate of RNA synthesis by IAV polymerase, G:U mismatch” value in assay [1] (GTP opposite uridine, calculated from Kapp) is 2.4×10^−3. Further, in assay [1], the “Primer extension products opposite C on template” value is on record as “converted to the 14-mer full length extension product”; the “Kapp, single NMP incorporation opposite cytidine (N:C)” value turned out to be 0.0078 ± 0.003 µM; the “Discrimination (Kapp,NTP/Kapp,GTP), opposite cytidine” value is on record as 1 fold; the “Primer extension products opposite U on template” value was “robust 14-mer RNA product”. In assay [1], the “Discrimination (Kapp,NTP/Kapp,ATP), opposite uridine” value is given as 420 fold. In addition, in assay [1] (template t14-2, position +10), the “Kapp, single NMP incorporation opposite uridine (N:U)” value turned out to be 9.2 ± 0.54 µM.
With `NC(=O)c1nc(F)cn([C@@H]2O[C@H](COP(=O)(O)OP(=O)(O)OP(=O)(O)O)[C@@H](O)[C@H]2O)c1=O` [T-705 RTP, T-705 ribofuranosyl 5′-triphosphate], in assay [2], the “Inhibition of radiolabeled viral RNA synthesis by RNP complex” value is listed as “inhibited the RdRp activity of influenza virus vRNPs” and the “Potency relative to 3′dGTP against RNP complex” value is given as “significantly more potent than 3′dGTP”. Also, the “Effect of increasing natural ATP to 300 µM on inhibition” value in assay [3] (ATP 300 µM vs 3 µM) was “same loss of inhibition effect”. The “Effect of CTP and UTP at varying concentrations on inhibition potency” value in assay [3] (CTP or UTP 3 or 300 µM) was “did not change the inhibition potency”. Besides, the “Effect of increasing natural GTP to 300 µM on inhibition of polymerase activity” value in assay [3] is reported as “almost completely prevented the inhibition of polymerase activity”. In assay [1], the “Primer extension products opposite C on template” value is given as “conversion of the 9-mer to 14-mer, with an additional 10-mer product”; the “Primer extension products opposite U on template” value is “conversion of the 9-mer to 10- and 14-mer products”; the “Primer extension products with multiple incorporation sites (UCC at +10 to +12)” value is reported as “complete inhibition of further nucleotide incorporation”.
